Laboratory results taken from article PMC6892276 (European Journal of Pharmaceutical Sciences, 2019).

Experiments:
[1] = test system: histone H-3 and STAT5 phosphorylation; set-up: method as in Bavetsias et al., 2012; conditions: p.o. 50 and 100 mg/kg b.i.d., 4-day mouse PK/PD study; ref Bavetsias et al., 2012; cited from earlier work
[2] = CLint in cryopreserved mouse hepatocyte suspensions; type: in vitro ADME; conditions: ICR/CD-1, cryopreserved hepatocyte suspensions, pH 7.4, female
Protocol: (§1) Cells were stored in the vapour phase of liquid nitrogen and thawed as per the supplier's instructions (rapid thawing at 37 °C, followed by centrifugation at 50 ×g for 5 min in thawing medium). Hepatocytes were re-suspended in a small volume of incubation medium (WME buffered with HEPES (final concentration 24 mM) adjusted to pH 7.4). Cell density was estimated using a haemocytometer and light microscope and viability determined according to the trypan blue exclusion method; cells were subsequently diluted to the required concentration in incubation medium. […]
(§2) For the purpose of CLint determination, samples were analysed using an Agilent 1290 Infinity ultra high-performance liquid chromatography (UHPLC) system coupled to an Agilent 6520 Quadrupole Time-of-flight mass spectrometer (Agilent Technologies, Stockport, UK). […]
(§3) In vitro data (parent compound LC-MS response) was fitted to a non-linear single exponential model using the software GraphPad Prism (v6.07, GraphPad Software, Inc., La Jolla, USA) to determine the elimination rate constant (k). CLint in hepatocytes and liver microsomes was calculated using Eqs. […]

[3] = set-up: method as in Bavetsias et al., 2012; conditions: rat; ref Bavetsias et al., 2012; cited from earlier work
CYP2D6 = test system: CYP2D6; set-up: method as in Bavetsias et al., 2012; conditions: ref Bavetsias et al., 2012; read-out: CYP2D6 inhibition IC50; cited from earlier work
[4] = CLint in rat liver microsomes; type: in vitro ADME; conditions: Sprague Dawley, female, 1 mg/ml, NADPH
Protocol: (§4) All incubations of subcellular fractions and recombinant enzymes were conducted at 37 °C and 800 rpm using a Hamilton Microlab Star liquid handling workstation (Hamilton Robotics (Bonaduz, Switzerland)).
(§5) Prior to initiation of the reaction by the addition of NADPH (final concentration 1 mM), an aliquot was removed from each incubation and quenched in ice cold methanol containing internal standard (referred to as T0). NADPH was subsequently added to this solution for matrix matching. The remaining reaction (with addition of NADPH) was allowed to proceed for 60 min. At 0.5, 5, 15, 30 and 60 min aliquots were sampled and quenched as above. Incubations were conducted in singlicate; control incubations (substituting PBS for NADPH) were conducted simultaneously.
as §2, §3

[5] = CLint in cryopreserved human hepatocyte suspensions; type: in vitro ADME; conditions: both sexes, pH 7.4, mixed sex
Protocol: as §1, §2, §3

[6] = CLint in dog liver microsomes; type: in vitro ADME; conditions: Beagle, 1 mg/ml, NADPH
Protocol: as §4, §5, §2, §3

CYP2A6 = test system: CYP2A6; set-up: method as in Bavetsias et al., 2012; conditions: ref Bavetsias et al., 2012; read-out: CYP2A6 inhibition IC50; cited from earlier work
[7] = test system: HCT116 (human colon carcinoma); set-up: method as in Bavetsias et al., 2012; conditions: ref Bavetsias et al., 2012; cited from earlier work
[8] = CLint in cryopreserved rat hepatocyte suspensions; type: in vitro ADME; conditions: Sprague Dawley, pH 7.4, female
Protocol: as §1, §2, §3

[9] = test system: MOLM-13 (human FLT3-ITD positive AML); set-up: method as in Bavetsias et al., 2012; conditions: ref Bavetsias et al., 2012; cited from earlier work
[10] = CLint in minipig liver microsomes; type: in vitro ADME; conditions: Gottingen, 1 mg/ml, NADPH
Protocol: as §4, §5, §2, §3

Caco-2 = test system: Caco-2; set-up: method as in Bavetsias et al., 2012; conditions: ref Bavetsias et al., 2012, cited from earlier work
CYP3A4 = test system: CYP3A4; set-up: method as in Bavetsias et al., 2012; conditions: ref Bavetsias et al., 2012; read-out: CYP3A4 inhibition IC50; cited from earlier work
[11] = set-up: method as in Bavetsias et al., 2012; conditions: mouse and rat; ref Bavetsias et al., 2012; cited from earlier work
[12] = test system: MV4-11 (human FLT3-ITD positive AML); set-up: method as in Bavetsias et al., 2012; conditions: ref Bavetsias et al., 2012; cited from earlier work
[13] = CLint in cryopreserved dog hepatocyte suspensions; type: in vitro ADME; conditions: Beagle
Protocol: as §1, §2, §3

hERG = test system: hERG; set-up: method as in Bavetsias et al., 2012; conditions: ref Bavetsias et al., 2012; read-out: hERG blockade IC50; cited from earlier work

For Cc1nn(C)cc1-c1nc2c(N3CCN(Cc4ccc(Cl)cc4)CC3)c(Cl)cnc2[nH]1 [CCT241736, 6-Chloro-7-(4-(4-chlorobenzyl)piperazin-1-yl)-2-(1,3-dimethyl-1Hpyrazol-4-yl)-3H-imidazo[4,5-b] pyridine], the “biomarker modulation (histone H-3 and STAT5 phosphorylation)” value [1] is given as “biomarker modulation”, the hepatocyte CLint at 1 μM [2] is given as 91 µL/min/1e6 cells and the clearance [3] is given as 4.57 mL/min/kg. For the same molecule, the IC50 (CYP2D6) was […], the microsomal CLint at 1 μM [4] was 2.7 ± 1.8 µL/min/mg and the hepatocyte CLint at 1 μM [5] was < 1 µL/min/1e6 cells. The microsomal CLint at 1 μM ([6]; female) was 9.5 ± 2.2 µL/min/mg, the microsomal CLint at 1 μM ([6]; male) was 7.4 ± 1.4 µL/min/mg and the IC50 (CYP2A6) was > 10 µM. The anti-proliferative activity [7] was “anti-proliferative activity”, the hepatocyte CLint at 1 μM [8] was 10 µL/min/1e6 cells and the anti-proliferative activity [9] was “anti-proliferative activity”. The microsomal CLint at 1 μM ([10]; female) was 5.1 ± 1.1 µL/min/mg, the microsomal CLint at 1 μM ([10]; male) was 5.5 ± 0.9 µL/min/mg and the efflux (Caco-2; Caco-2) was “no evidence of efflux”. For the same molecule, the Caco-2 permeability (Caco-2) was 18.6 ×10⁻⁶ cm/s, the IC50 (CYP3A4) was > 10 µM and the oral bioavailability [11] was 79–100%. The anti-proliferative activity [12] was “anti-proliferative activity”, the hepatocyte CLint at 1 μM ([13]; pH 7.4, female) was 3.9 µL/min/1e6 cells and the hepatocyte CLint at 1 μM ([13]; pH 7.4, male) was 8.4 µL/min/1e6 cells. For the same molecule, the IC50 (hERG) was > 25 µM.
